Test system: collagen type I alpha I chain (COL1A1) gene, normal human dermal fibroblasts (NHDF)
Experiment: Fold change in gene expression of COL1A1 in normal human dermal fibroblasts (qPCR, normalized to ACTB)
Type: cell-based
Details: 48 hours, relative to blank control (1.0)
Experimental: The normal human dermal fibroblasts (NHDF) (Biocell, Xi'an, China, Lot: Fb20081902) were incubated in medium together with or without actives for 48 hours. After incubation, the total RNA for each NHDF was extracted using RNAex Pro reagent (Accurate Biotechnology, Cat: AG21102) according to manufacturer's protocol.
The extracted RNA was quantified using Nanodrop spectrometer (Thermo Fisher Scientific, Waltham, MA, US) and reverse transcribed to generate the template cDNA using the Evo M-MLV RT Premix for qPCR (Accurate Biotechnology, Cat: AG11706) according to manufacturer's protocol. Gene expression of COL1A1 gene was analyzed by polymerase chain reaction (PCR) using SYBR® Green Premix Pro Taq HS qPCR Kit (Accurate Biotechnology, AG11701). The actin beta (ACTB) gene was selected as the housekeeping gene and all data on relative expression of the target genes was normalized to ACTB gene. The fold changes in expression were calculated relative to the blank control (medium having no active).

Fold change of COL1A1 expression (1 μM of RP (group B)) [fold change]	Fold change of COL1A1 expression (10 μM of RP (group E)) [fold change]	Fold change of COL1A1 expression (5 μM of LCC (group D)) [fold change]	Fold change of COL1A1 expression (10 μM of LCC (group G)) [fold change]	Fold change of COL1A1 expression (50 μM of LCC (group A)) [fold change]	Molecule
1.4	1.5	–	–	–	CCC(=O)OC/C=C(C)/C=C/C=C(C)/C=C/C1=C(C)CCCC1(C)C [RP, Retinyl propionate]
–	–	1.4	1.5	1.3	Lysine carboxymethyl cysteinate [LCC]

From US20260373038A1, “A PERSONAL CARE COMPOSITION” (Conopco, Inc., d/b/a UNILEVER, priority 2022, published 2026)
